Patent US8563503B2, “Antibiotic, its nucleotide sequence, methods of construction and uses thereof” (Protein Design Lab. Ltd., priority 2011, dated 2013)
≈ marks a conversion by molar mass, not a printed value. Entries after “also recorded” stand apart in the source; their conditions may differ.

Tests used:
[1] = system: Staphylococcus aureus ATCC 29213; experiment: MIC against the infecting strain (Table 2); format: cell-based; details: ATCC29213
Method: (§1) (3) Culture Solution • MH Broth Culture Solution: 25 g was added into […] distilled water, heat to dissolve, subpackaged, autoclaved at 116° C. for 20 minutes, and MH Solid Culture Medium, 36 g was added into 1000 ml distilled water, autoclaved at 116° C. for 20 minutes, used for drug sensitive test of Gram-positive and negative aerobic bacteria. • Blood culture solution for Enterococcus faecalis, which was prepared by adding defibration rabbit blood into the MH culture solution by 5-10% and cultured at 37° C. in 5% CO2 for 24 hours. 2. Experimental Methods (1) The Measurement of Minimum Inhibitory Concentration (MIC) • The Minimum Inhibitory Concentration (MIC) of PMC-SA1 was measured by Agar Doubling Dilution Method. The bacterium was inoculated on the surface of agar plate containing different concentration of drugs by multipoint inoculate instrument (Deneley A400). The bacterial content per point was 10^5 CFU/ml. After incubated at 37° C. for 18-24 hours, the result can be observed. The least concentration of drugs in plate culture solution without bacterium growing was Minimum Inhibitory Concentration (MIC) of the drug to the said bacteria. 3. Results

E. coli 02-1-65 [2] = experiment: MIC against the infecting strain (Table 2); format: cell-based; details: Escherichia coli, 02165
Method: as §1

[3] = system: Staphylococcus aureus MRSA BAA-42; experiment: MIC against the infecting strain (Table 2); format: cell-based; details: Staphylococcus aureus
Method: as §1

Enterococcus ATCC 700802 [4] = experiment: Protection test in vivo (intravenous injection) of infected mice; parameters: species or system Kungming mice; details: Enterococcus, ATCC700802
Method: (§2) The drugs used in this embodiment were same with that used in embodiment 4.
(§3) The above drugs were dissolved and diluted by sterilized water, and the injection concentrations of each drug were 10 mg/kg, 5 mg/kg and 2.5 mg/kg.
(§4) After given intraperitoneal injection of fatal dose of above-mentioned bacteria, the mice of each drug experimental group respectively were given once intravenous injection of the drug by 10 mg, 5 mg, 2.5 mg/kg. The results were observed per 24 hours for 7-14 days. The positive result is mice's death.

[5] = system: Staphylococcus aureus ATCC 29213; experiment: as above; parameters: species or system Kungming mice; details: Staphylococcus aureus, ATCC29213
Method: as §2, §3, §4

E. coli 02-1-65 [6] = experiment: as above; parameters: species or system Kungming mice; details: Escherichia coli, 02165
Method: as §2, §3, §4

[7] = system: Staphylococcus aureus MRSA BAA-42; experiment: as above; parameters: species or system Kungming mice; details: Staphylococcus aureus
Method: as §2, §3, §4

Enterococcus ATCC 700802 [8] = experiment: MIC against the infecting strain (Table 2); format: cell-based, Enterococcus faecalis; details: ATCC700802
Method: as §1

E. coli = experiment: MIC by Agar Doubling Dilution Method, clinical isolates; format: cell-based; details: Escherichia coli
Method: as §1

[9] = system: Staphylococcus epidermidis (MSSE strain); experiment: as above; format: cell-based; details: Staphylococcus epidermidis
Method: as §1

Baumanii = experiment: as above; format: cell-based
Method: as §1

[10] = system: Staphylococcus aureus (MSSA); experiment: as above; format: cell-based; details: Staphylococcus aureus, MSSA
Method: as §1

[11] = system: Staphylococcus epidermidis (MRSE); experiment: as above; format: cell-based; details: Staphylococcus epidermidis, MRSE
Method: as §1

[12] = system: Staphylococcus aureus (MRSA); experiment: as above; format: cell-based; details: Staphylococcus aureus, MRSA
Method: as §1

Enterococcus = experiment: as above; format: cell-based, Enterococcus faecalis; details: Enterococcus
Method: as §1

[13] = Immunization of mice, valence of mouse sera by indirect ELISA; format: in vivo; details: from valence of mouse sera
Method: Allosteric peptide of Colicin Ia, i.e. Ia′, PMC-SA1 obtained in embodiment 1, wild-type colicin Ia and the anti-Staphylococcus aureus peptide (ZL01128836.1) which invented by the present inventor were taken respectively to immunize mice. After admixturing with the adjuvant, the above proteins were interaperitonea injected respectively to the mice by 50 μg per mouse for one time of foundational quantity and 50 μg per mouse for one time of additional quantity totally 5 times by two weeks interval. Indirect ELISA detection method was applied to detect the valence of mouse sera (Xiao Yi, et. al., Preparation and preliminary characterization of monoclonal antibodies against Pheromonicin-and-Staphylococcus aureus, Shanxi Medical Journal, 35(1): 6-7, 32 (2006)). The valence of mouse sera which immunized by wild type colicin Ia as well as anti-Staphylococcus aureus polypeptide (ZL01128836.1) was 10^−4 to 10^−5, while the valence of mouse sera which immunized by allosteric peptide of colicin Ia and PMC-SA1 was 10^−2 to 10^−3.

[14] = system: methicillin-resistant Staphylococcus aureus ATCC BAA-42; experiment: Bacteria growth curve (A595 nm), comparison of the novel antibiotics; format: cell-based; details: drug 5 μg/ml, 37° C., A595 nm per hour
Method: The following experiment was set for comparing bacteriostasis effects of 6 kinds of the novel antibiotics. The experimental bacteriaum was United States Standard Strain methicillin-resistant Staphylococcus aureus ATCC BAA-42. 5 microliter of bacteria solution (10^6 CFU/ml level bacterium amount) was added into 10 ml culture solution containing 1% peptone, 1% NaCl, 0.5% yeast extract, 0.5% glucose and 0.1% K2HPO4, total of 8 groups were prepared. The first group as control was added 0.3 M NaCl+50 mM boric acid buffer fluid by the same volume as that of antibiosis polypeptide liquid added in any experimental groups, the second group was added penicillin G sodium by 5 μg/ml, PMC-SA1, PMC-SA2, PMC-SA3, PMC-SA4, PMC-SE and PMC-PA were added in the other experimental groups with preservative fluid being 0.3 M NaCl+50 mM boric acid buffer fluid by 5 ug/ml.
(§5) The solution of above groups was put into 100 ml conical flask, 200 rpm, grew at 37° C. 100 μl was sampled per hour, and added onto 96-pore ELISA plate and measured bacteria grown cloudiness by spectrophotometer (A595 nm) color comparison. The bacteria growth curve was drawn up to compare the bacteriostasis efficacy of antibiosis polypeptide.

[15] = system: Staphylococcus epidermidis reference culture No. 26069; experiment: Bacteria growth curve (A595 nm cloudiness), Staphylococcus epidermidis; format: cell-based; details: drug 2 μg/ml, 37° C., A595 nm per hour
Method: The bacterium is Staphylococcus epidermidis reference culture No. 26069, purchased from China Center of Culture Collection (National Institute for the Control of Pharmaceutical and Biological Products). 3 microliter of bacterium solution (10^6 CFU/ml level bacterium amount) was added into 10 ml culture solution containing 1% peptone, 1% NaCl, 0.5% yeast extract, 0.5% glucose and 0.1% K2HPO4. Totally four groups were prepared. The first group as control was added 0.3M NaCl+50 mM boric acid buffer fluid by the same volume with that of antibiosis polypeptide liquid added in any experimental groups, the second group was added penicillin G sodium by 2 μg/ml, PMC-SA1 and PMC-SE was added in the other experimental groups by 2 μg/ml (0.3 M NaCl+50 mM boric acid buffer fluid was preservative fluid).
as §5, with “to measure” for “and measured”, “the novel antibiotics.” for “antibiosis polypeptide.”

Molecule: CN[C@H](CC(C)C)C(=O)N[C@H]1C(=O)N[C@@H](CC(N)=O)C(=O)N[C@H]2C(=O)N[C@H]3C(=O)N[C@H](C(=O)N[C@H](C(=O)O)c4cc(O)cc(O)c4-c4cc3ccc4O)[C@H](O)c3ccc(c(Cl)c3)Oc3cc2cc(c3O[C@@H]2O[C@H](CO)[C@@H](O)[C@H](O)[C@H]2O[C@H]2C[C@](C)(N)[C@H](O)[C@H](C)O2)Oc2ccc(cc2Cl)[C@H]1O [Vancomycin]
- MIC [1]: 0.5 mg/L (≈ 0.345 µM)
- MIC (E. coli 02-1-65 [2]): 128 mg/L (≈ 88.3 µM)
- MIC [3]: 0.5 mg/L (≈ 0.345 µM)
- ED50 (Enterococcus ATCC 700802 [4]): 3.66 mg/kg
- ED50 [5]: 2.42 mg/kg
- ED50 (E. coli 02-1-65 [6]): > 40.1 mg/kg
- ED50 [7]: 3.54 mg/kg
- MIC (Enterococcus ATCC 700802 [8]): > 16 mg/L
- MIC50 (E. coli): > 128 mg/L
- MIC90 (E. coli): > 128 mg/L
- MIC (E. coli; read-out: Scope of MIC): > 128 mg/L
- MIC50 [9]: 0.5 mg/L (≈ 0.345 µM)
- MIC90 [9]: 0.5 mg/L (≈ 0.345 µM)
- MIC ([9]; read-out: Scope of MIC): 0.06 to 0.5 mg/L (≈ 0.0414 to 0.345 µM)
- MIC50 (Baumanii): > 128 mg/L
- MIC90 (Baumanii): > 128 mg/L
- MIC50 [10]: 0.5 mg/L (≈ 0.345 µM)
- MIC90 [10]: 1 mg/L (≈ 0.69 µM)
- MIC ([10]; read-out: Scope of MIC): 0.03 to 1 mg/L (≈ 0.0207 to 0.69 µM)
- MIC50 [11]: 0.5 mg/L (≈ 0.345 µM)
- MIC90 [11]: 1 mg/L (≈ 0.69 µM)
- MIC ([11]; read-out: Scope of MIC): 0.25 to 2 mg/L (≈ 0.173 to 1.38 µM)
- MIC50 [12]: 0.25 mg/L (≈ 0.173 µM)
- MIC90 [12]: 1 mg/L (≈ 0.69 µM)
- MIC ([12]; read-out: Scope of MIC): 0.004 to 2 mg/L (≈ 0.00276 to 1.38 µM)
- MIC50 (Enterococcus): 1 mg/L (≈ 0.69 µM)
- MIC90 (Enterococcus): 2 mg/L (≈ 1.38 µM)
- MIC (Enterococcus; read-out: Scope of MIC): 0.5 to 50 mg/L (≈ 0.345 to 34.5 µM)

B1: allosteric peptide of colicin Ia: wild-type Colicin Ia with mutations G11A, H22R, A26G, V31L and H40K; SEQ ID NO: 36 (protein)
chain: SDPVRITNPAAESLGYDSDGREIMGVDIYLNPPRVDVFKGTPPAWSSFGNKTIWGGNEWVDDSPTRSDIEKRDKEITAYKNTLSAQQKENENKRTEAGKRLSAAIAAREKDENTLKTLRAGNADAADITRQEFRLLQAELREYGFRTEIAGYDALRLHTESRMLFADADSLRISPREARSLIEQAEKRQKDAQNADKKAADMLAEYERRKGILDTRLSELEKNGGAALAVLDAQQARLLGQQTRNDRAISEARNKLSSVTESLNTARNALTRAEQQLTQQKNTPDGKTIVSPEKFPGRSSTNHSIVVSGDPRFAGTIKITTSAVIDNRANLNYLLSHSGLDYKRNILNDRNPVVTEDVEGDKKIYNAEVAEWDKLRQRLLDARNKITSAESAVNSARNNLSARTNEQKHANDALNALLKEKENIRNQLSGINQKIAEEKRKQDELKATKDAINFTTEFLKSVSEKYGAKAEQLAREMAGQAKGKKIRNVEEALKTYEKYRADINKKINAKDRAAIAAALESVKLSDISSNLNRFSRGLGYAGKFTSLADWITEFGKAVRTENWRPLFVKTETIIAGNAATALVALVFSILTGSALGIIGYGLLMAVTGALIDESLVEKANKFWGI
modifications: allosteric peptide of colicin Ia
- possibility of causing host allergic reaction relative to anti-Staphylococcus aureus polypeptide [13]: lower one to two order of magnitude

B2: PMC-SE: Staphylococcus epidermidis pheromone linked to C-terminus of allosteric colicin Ia′; SEQ ID NO. 21; plasmid pBHC-SE (protein)
chain: SDPVRITNPAAESLGYDSDGREIMGVDIYLNPPRVDVFKGTPPAWSSFGNKTIWGGNEWVDDSPTRSDIEKRDKEITAYKNTLSAQQKENENKRTEAGKRLSAAIAAREKDENTLKTLRAGNADAADITRQEFRLLQAELREYGFRTEIAGYDALRLHTESRMLFADADSLRISPREARSLIEQAEKRQKDAQNADKKAADMLAEYERRKGILDTRLSELEKNGGAALAVLDAQQARLLGQQTRNDRAISEARNKLSSVTESLNTARNALTRAEQQLTQQKNTPDGKTIVSPEKFPGRSSTNHSIVVSGDPRFAGTIKITTSAVIDNRANLNYLLSHSGLDYKRNILNDRNPVVTEDVEGDKKIYNAEVAEWDKLRQRLLDARNKITSAESAVNSARNNLSARTNEQKHANDALNALLKEKENIRNQLSGINQKIAEEKRKQDELKATKDAINFTTEFLKSVSEKYGAKAEQLAREMAGQAKGKKIRNVEEALKTYEKYRADINKKINAKDRAAIAAALESVKLSDISSNLNRFSRGLGYAGKFTSLADWITEFGKAVRTENWRPLFVKTETIIAGNAATALVALVFSILTGSALGIIGYGLLMAVTGALIDESLVEKANKFWGIDSVCASYF
modifications: The peptide of PMC-SE
notes: Staphylococcus epidermidis pheromone linked to C-terminus of allosteric colicin Ia′; 21; plasmid pBHC-SE
- bacteriostasis effect on growth of methicillin-resistant Staphylococcus aureus (bacteria growth curve) [14]: less better
- growth of Staphylococcus epidermidis (bacteria growth curve) [15]: effectively restrained; also recorded: completely restrained
